Results: ChEMBL document CHEMBL1201862, “PubChem BioAssay data set” (2004)
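In this assay, cells in 96-well plates receive the compound at five concentrations for 48 hours. Endpoints are linearly interpolated between the surrounding concentrations. GI50 marks 50% less growth.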 Activity calls are given as the source filed them. No stated cut-off is given here; in the data, active = GI50 up to about 1.1 µM and inactive = higher.

Columns and labels:
Test in all cases: NCI-60 cell line screen, 48 h
KM12 = system: KM12
KM-20L2 = system: KM-20L2
OVCAR-5 = system: OVCAR-5
NCI-H226 = system: NCI-H226
SK-OV-3 = system: SK-OV-3
M19-MEL = system: M19-MEL
SF-295 = system: SF-295
UACC-257 = system: UACC-257
CCRF-CEM = system: CCRF-CEM
OVCAR-8 = system: OVCAR-8
SR = system: SR
HCT-116 = system: HCT-116
LXFL 529 = system: LXFL 529
K562 = system: K562
SNB-75 = system: SNB-75
DMS-273 = system: DMS-273
NCI-H522 = system: NCI-H522
NCI-H460 = system: NCI-H460
SNB-78 = system: SNB-78
M14 = system: M14
SK-MEL-28 = system: SK-MEL-28
TK-10 = system: TK-10
OVCAR-4 = system: OVCAR-4
RPMI-8226 = system: RPMI-8226
HOP-18 = system: HOP-18
LOX IMVI = system: LOX IMVI
HCC 2998 = system: HCC 2998
HOP-92 = system: HOP-92
CAKI-1 = system: CAKI-1
SN12C = system: SN12C
SK-MEL-5 = system: SK-MEL-5
ACHN = system: ACHN
UO-31 = system: UO-31
EKVX = system: EKVX
DMS-114 = system: DMS-114
A549 = system: A549
SW-620 = system: SW-620
OVCAR-3 = system: OVCAR-3
IGROV-1 = system: IGROV-1
U-251 = system: U-251
HL-60 = system: HL-60
COLO 205 = system: COLO 205
RXF 393 = system: RXF 393
SF-539 = system: SF-539
SK-MEL-2 = system: SK-MEL-2
HT-29 = system: HT-29
786-0 = system: 786-0
HCT-15 = system: HCT-15
HOP-62 = system: HOP-62
DLD-1 = system: DLD-1
Malme-3M = system: Malme-3M
UACC-62 = system: UACC-62
SF-268 = system: SF-268
A498 = system: A498
MOLT-4 = system: MOLT-4
NCI-H23 = system: NCI-H23
SNB-19 = system: SNB-19
XF498 = system: XF498

With `Nc1ccn(CCO)c(=O)n1` the GI50 (KM12) was > 100 µM (inactive), the GI50 (KM-20L2) was > 100 µM (inactive) and the GI50 (OVCAR-5) was > 100 µM (inactive). For the same molecule, the GI50 (NCI-H226) was > 100 µM (inactive), the GI50 (SK-OV-3) was > 100 µM (inactive) and the GI50 (M19-MEL) was > 100 µM (inactive). For the same molecule, the GI50 (SF-295) was > 100 µM (inactive), the GI50 (UACC-257) was > 100 µM (inactive) and the GI50 (CCRF-CEM) was > 100 µM (inactive). The GI50 (OVCAR-8) was > 100 µM (inactive), the GI50 (SR) was > 100 µM (inactive) and the GI50 (HCT-116) was > 100 µM (inactive). The GI50 (LXFL 529) was > 100 µM (inactive), the GI50 (K562) was > 100 µM (inactive) and the GI50 (SNB-75) was > 100 µM (inactive). The GI50 (DMS-273) was > 100 µM (inactive), the GI50 (NCI-H522) was > 100 µM (inactive) and the GI50 (NCI-H460) was > 100 µM (inactive). For the same molecule, the GI50 (SNB-78) was > 100 µM (inactive), the GI50 (M14) was > 100 µM (inactive) and the GI50 (SK-MEL-28) was > 100 µM (inactive). The GI50 (TK-10) was > 100 µM (inactive), the GI50 (OVCAR-4) was > 100 µM (inactive) and the GI50 (RPMI-8226) was > 100 µM (inactive). The GI50 (HOP-18) was > 100 µM (inactive), the GI50 (LOX IMVI) was > 100 µM (inactive) and the GI50 (HCC 2998) was > 100 µM (inactive). For the same molecule, the GI50 (HOP-92) was > 100 µM (inactive), the GI50 (CAKI-1) was > 100 µM (inactive) and the GI50 (SN12C) was > 100 µM (inactive). The GI50 (SK-MEL-5) was > 100 µM (inactive), the GI50 (ACHN) was > 100 µM (inactive) and the GI50 (UO-31) was > 100 µM (inactive). For the same molecule, the GI50 (EKVX) was > 100 µM (inactive), the GI50 (DMS-114) was > 100 µM (inactive) and the GI50 (A549) was > 100 µM (inactive). For the same molecule, the GI50 (SW-620) was > 100 µM (inactive), the GI50 (OVCAR-3) was > 100 µM (inactive) and the GI50 (IGROV-1) was > 100 µM (inactive). For the same molecule, the GI50 (U-251) was > 100 µM (inactive), the GI50 (HL-60) was > 100 µM (inactive) and the GI50 (COLO 205) was > 100 µM (inactive). The GI50 (RXF 393) was > 100 µM (inactive), the GI50 (SF-539) was > 100 µM (inactive) and the GI50 (SK-MEL-2) was > 100 µM (inactive). The GI50 (HT-29) was > 100 µM (inactive), the GI50 (786-0) was > 100 µM (inactive) and the GI50 (HCT-15) was greater than 100 µM. The GI50 (HOP-62) was > 100 µM (inactive), the GI50 (DLD-1) was > 100 µM (inactive) and the GI50 (Malme-3M) was > 100 µM (inactive). The GI50 (UACC-62) was > 100 µM (inactive), the GI50 (SF-268) was > 100 µM (inactive) and the GI50 (A498) was > 100 µM (inactive).
For `Cc1ccc(NC(=O)C(=O)C(C2C(C)CC(=O)C2CC(=O)O)[N+](=O)[O-])cc1` (stereo unspecified), the GI50 (KM12) was > 100 µM (inactive), the GI50 (KM-20L2) was > 100 µM (inactive) and the GI50 (OVCAR-5) was > 100 µM (inactive). The GI50 (NCI-H226) was > 100 µM (inactive), the GI50 (SK-OV-3) was > 100 µM (inactive) and the GI50 (SF-295) was > 100 µM (inactive). The GI50 (UACC-257) was > 100 µM (inactive), the GI50 (CCRF-CEM) was > 100 µM (inactive) and the GI50 (OVCAR-8) was > 100 µM (inactive). The GI50 (SR) was > 100 µM (inactive), the GI50 (HCT-116) was > 100 µM (inactive) and the GI50 (LXFL 529) was > 100 µM (inactive). The GI50 (K562) was > 100 µM (inactive), the GI50 (MOLT-4) was > 100 µM (inactive) and the GI50 (SNB-75) was > 100 µM (inactive). The GI50 (NCI-H460) was > 100 µM (inactive), the GI50 (NCI-H23) was > 100 µM (inactive) and the GI50 (SNB-78) was > 100 µM (inactive). For the same molecule, the GI50 (M14) was > 100 µM (inactive), the GI50 (SK-MEL-28) was > 100 µM (inactive) and the GI50 (TK-10) was > 100 µM (inactive). The GI50 (OVCAR-4) was > 100 µM (inactive), the GI50 (SNB-19) was > 100 µM (inactive) and the GI50 (RPMI-8226) was > 100 µM (inactive). The GI50 (LOX IMVI) was > 100 µM (inactive), the GI50 (HCC 2998) was > 100 µM (inactive) and the GI50 (HOP-92) was > 100 µM (inactive). The GI50 (CAKI-1) was > 100 µM (inactive), the GI50 (SN12C) was > 100 µM (inactive) and the GI50 (SK-MEL-5) was > 100 µM (inactive). For the same molecule, the GI50 (ACHN) was > 100 µM (inactive), the GI50 (UO-31) was > 100 µM (inactive) and the GI50 (EKVX) was > 100 µM (inactive). For the same molecule, the GI50 (DMS-114) was > 100 µM (inactive), the GI50 (A549) was > 100 µM (inactive) and the GI50 (SW-620) was > 100 µM (inactive). For the same molecule, the GI50 (OVCAR-3) was > 100 µM (inactive), the GI50 (IGROV-1) was > 100 µM (inactive) and the GI50 (XF498) was > 100 µM (inactive). The GI50 (U-251) was > 100 µM (inactive), the GI50 (HL-60) was > 100 µM (inactive) and the GI50 (COLO 205) was > 100 µM (inactive). For the same molecule, the GI50 (RXF 393) was > 100 µM (inactive), the GI50 (SF-539) was > 100 µM (inactive) and the GI50 (SK-MEL-2) was > 100 µM (inactive). For the same molecule, the GI50 (HT-29) was > 100 µM (inactive), the GI50 (786-0) was > 100 µM (inactive) and the GI50 (HCT-15) was greater than 100 µM. For the same molecule, the GI50 (HOP-62) was > 100 µM (inactive), the GI50 (DLD-1) was > 100 µM (inactive) and the GI50 (Malme-3M) was > 100 µM (inactive). The GI50 (UACC-62) was > 100 µM (inactive), the GI50 (SF-268) was > 100 µM (inactive) and the GI50 (A498) was > 100 µM (inactive).
For `COC(=O)c1nn(-c2ccccc2)c(=O)cc1N=[N+]=[N-]`, the GI50 (KM12) was > 100 µM (inactive), the GI50 (KM-20L2) was > 100 µM (inactive) and the GI50 (OVCAR-5) was > 100 µM (inactive). The GI50 (NCI-H226) was > 100 µM (inactive), the GI50 (SK-OV-3) was > 100 µM (inactive) and the GI50 (M19-MEL) was > 100 µM (inactive). For the same molecule, the GI50 (SF-295) was > 100 µM (inactive), the GI50 (UACC-257) was > 100 µM (inactive) and the GI50 (CCRF-CEM) was > 100 µM (inactive). For the same molecule, the GI50 (OVCAR-8) was > 100 µM (inactive), the GI50 (SR) was > 100 µM (inactive) and the GI50 (HCT-116) was > 100 µM (inactive). For the same molecule, the GI50 (LXFL 529) was > 100 µM (inactive), the GI50 (K562) was > 100 µM (inactive) and the GI50 (MOLT-4) was > 100 µM (inactive). For the same molecule, the GI50 (DMS-273) was > 100 µM (inactive), the GI50 (NCI-H522) was > 100 µM (inactive) and the GI50 (NCI-H460) was > 100 µM (inactive). For the same molecule, the GI50 (NCI-H23) was > 100 µM (inactive), the GI50 (SNB-78) was > 100 µM (inactive) and the GI50 (M14) was > 100 µM (inactive). The GI50 (SK-MEL-28) was > 100 µM (inactive), the GI50 (TK-10) was > 100 µM (inactive) and the GI50 (OVCAR-4) was > 100 µM (inactive). For the same molecule, the GI50 (SNB-19) was > 100 µM (inactive), the GI50 (RPMI-8226) was > 100 µM (inactive) and the GI50 (LOX IMVI) was > 100 µM (inactive). For the same molecule, the GI50 (HCC 2998) was > 100 µM (inactive), the GI50 (CAKI-1) was > 100 µM (inactive) and the GI50 (SN12C) was > 100 µM (inactive). The GI50 (SK-MEL-5) was > 100 µM (inactive), the GI50 (ACHN) was > 100 µM (inactive) and the GI50 (UO-31) was > 100 µM (inactive). The GI50 (EKVX) was > 100 µM (inactive), the GI50 (DMS-114) was > 100 µM (inactive) and the GI50 (A549) was > 100 µM (inactive). The GI50 (SW-620) was > 100 µM (inactive), the GI50 (OVCAR-3) was > 100 µM (inactive) and the GI50 (IGROV-1) was > 100 µM (inactive). For the same molecule, the GI50 (XF498) was > 100 µM (inactive), the GI50 (U-251) was > 100 µM (inactive) and the GI50 (HL-60) was > 100 µM (inactive). For the same molecule, the GI50 (COLO 205) was 99.5 µM (inactive), the GI50 (RXF 393) was > 100 µM (inactive) and the GI50 (SF-539) was > 100 µM (inactive). The GI50 (HT-29) was > 100 µM (inactive), the GI50 (786-0) was > 100 µM (inactive) and the GI50 (HCT-15) was greater than 100 µM. The GI50 (HOP-62) was > 100 µM (inactive), the GI50 (Malme-3M) was > 100 µM (inactive) and the GI50 (UACC-62) was > 100 µM (inactive). The GI50 (SF-268) was > 100 µM (inactive) and the GI50 (A498) was 94 µM (inactive).
